In US20230054976A1, “METHODS FOR INHIBITION OF ALPHA-SYNUCLEIN mRNA USING SMALL MOLECULES” (The Scripps Research Institute, priority 2019, published 2023):

Test system: SNCA mRNA
Assay: ASO-Bind-Map in cells (gapmer ASO, RT-qPCR)
Assay type: cell-based, human
Settings: 200 nM, SH-SY5Y cells, RT-qPCR
Method: Mapping Synucleozid's binding site in cells with ASO-Bind-Map. SH-SY5Y cells were treated with vehicle (DMSO) or Synucleozid at 60% confluency overnight and were then transfected with a gapmer ASO (200 nM) with Lipofectamine RNAiMAX (Invitrogen) according to the manufacturer's instructions. Mock samples were generated by treating cells with transfection reagent lacking oligonucleotide. RNA extraction, cDNA synthesis and RT-qPCR were performed as described above after 48 h. Primers for SNCA mRNA in this experiment cover sequences upstream and downstream of the IRE; forward primer: [NT]; reverse primer [NT].

Substance	reduction of SNCA mRNA levels by gapmer [%]
5′-CACTCCCAGT-3′ (2'-MOE phosphorothioate gapmer, further chemistry not given here) [ASO(1-10), reference compound]	~50
5′-TCCTTTACACC-3′ (2'-MOE phosphorothioate gapmer, further chemistry not given here) [ASO(29-39), reference compound]	~50
